From patent publication US10252987B2, “Type of antiviral compound” (Institute of Medicinal Biotechnology, Chinese Academy of …, priority 2015, dated 2019)

What follows are compounds tested on HCV (assay: anti-HCV activity assay in cell culture (HCV RNA by one-step quantitative RT-PCR)). Conditions: Hepatitis C virus, Huh7.5, 96 h, compound at 10 μmol/L; Huh7.5 cells infected with HCV virus particles; cultured 96 hrs; HCV RNA in cells vs virus control group; read-out: percent inhibition (%).
Format: cell-based
Method: The assay results of anti-HCV activity of the compound synthesized according to the present invention in cell culture are shown in Table 1, wherein the molecular weight is calculated by ChemBioDraw 12.0 software from the molecular structure of each compound.
100 μL Huh7.5 cells were seeded in 96-well cell culture plate to 1×10^5/mL density, cultured in an incubator at 37° C. under the condition of 5% CO2 and saturated humidity for 6 hrs. Huh7.5 cells were then infected by viral solution containing HCV virus particles, and solutions of compound of the present invention at a concentration of 10 μmol/L liquid were added respectively, cultured for further 96 hrs, and then total RNA was extracted from the cells. Amount of HCV RNA in cells was determined by one-step quantitative RT-PCR, and compared to RNA levels of the virus control group to calculate the inhibition rate of compounds on HCV.
In the case of `CN1CCN(c2ccc(C#N)c(CN3CCN(c4ccc(C5CCCC5)cc4)CC3)c2)CC1` [VI-24, 4-(4-methylpiperazin-1-yl)-2-(4-(4-cyclopentylphenyl)piperazin-1-yl)methylbenzonitrile], the inhibition at 10 µM is reported as 59%. In the case of `COc1ccc(N2CCN(Cc3cc(N4CCN(C)CC4)ccc3C#N)CC2)cc1` [VI-3, 4-((4-methyl)piperazin-1-yl)-2-(4-(4-methoxyphenyl)piperazin-1-yl)methylbenzonitrile], the inhibition at 10 µM is reported as 91%. `Cc1ccc(N2CCN(Cc3cc(N4CCNCC4)ccc3C#N)CC2)cc1` [VI-6, 4-(piperazin-1-yl)-2-(4-(4-methylphenyl)piperazin-1-yl)methylbenzonitrile] gave an inhibition at 10 µM of 88%. For `CN1CCN(c2ccc(C#N)c(CN3CCC(c4ccc(C(C)(C)C)cc4)CC3)c2)CC1` [VI-38, 4-(4-methylpiperazin-1-yl)-2-(4-(4-tert-butylphenyl)piperidin-1-yl)methylbenzonitrile], the inhibition at 10 µM was 80%. `Cc1cc(C2CCN(Cc3cc(N4CCN(C)CC4)ccc3C#N)CC2)ccc1C#N` [VI-23, 4-(4-methylpiperazin-1-yl)-2-(4-(3-methyl-4-cyanophenyl)piperidin-1-yl)methylbenzonitrile] was tested, and the inhibition at 10 µM was 77%. `N#Cc1ccc(N2CCNCC2)cc1CNc1ccccc1` [Compound 7, 4-(piperazin-1-yl)-2-(phenylamino)methylbenzonitrile] was tested, and the inhibition at 10 µM was 82%. `CCc1ccc(NCc2cc(N3CCN(C)CC3)ccc2C#N)cc1` [Compound 13, 4-(4-methylpiperazin-1-yl)-2-(p-ethylphenylamino)methylbenzonitrile] was tested, and the inhibition at 10 µM was 87%. With `N#Cc1ccc(N2CCNCC2)cc1CN1CCN(c2ccc(Cl)cc2)CC1` [VI-10, 4-(piperazin-1-yl)-2-(4-(4-chlorophenyl)piperazin-1-yl)methylbenzonitrile] the inhibition at 10 µM was 73%. With `CN1CCN(c2ccc(C#N)c(CNc3ccccc3)c2)CC1` [Compound 4, 4-(4-methylpiperazin-1-yl)-2-(phenylamino)methylbenzonitrile] the inhibition at 10 µM was 82%. For `CN(C)CNc1ccc(C#N)c(CNc2ccc(C(C)(C)C)cc2)c1` [Compound 32, 2-((4-tert-butylphenyl)amino)methyl-4-((N,N-dimethylamino)methyl)aminobenzonitrile], the inhibition at 10 µM was 73%. `COc1ccc(NCc2nc(N3CCN(C)CC3)ccc2C#N)cc1` [Compound 36, 2-((4-methoxyphenyl)amino)methyl-6-(4-methylpiperazin-1-yl)-3-cyanopyridine] was tested, and the inhibition at 10 µM was 75%. Work on `Cc1ccc(N2CCN(Cc3cc(N4CCN(C)CC4)ccc3C#N)CC2)cc1` [VI-4, 4-((4-methyl)piperazin-1-yl)-2-(4-(4-methylphenyl)piperazin-1-yl)methylbenzonitrile] yielded an inhibition at 10 µM of 98%. `CN1CCN(c2ccc(C#N)c(CN3CCN(c4ccc(Br)cc4)CC3)c2)CC1` [VI-34, 2-(4-(4-bromophenyl)piperazin-1-yl)methyl-4-(4-methylpiperazin-1-yl)benzonitrile] showed an inhibition at 10 µM of 91%. `COc1ccc(NCc2cc(N3CCN(C)CC3)ccc2C#N)cc1` [Compound 10, 4-(4-methylpiperazin-1-yl)-2-(p-methoxyphenylamino)methylbenzonitrile] gave an inhibition at 10 µM of 90%. For `Cc1ccc(NCc2nc(N3CCN(C)CC3)ccc2C#N)cc1` [Compound 37, 2-((4-methylphenyl)amino)methyl-6-(4-methylpiperazin-1-yl)-3-cyanopyridine], the inhibition at 10 µM was 72%. In the case of `CN(C)CNc1ccc(C#N)c(CN2CCN(c3ccc(C(C)(C)C)cc3)CC2)c1` [VI-33, 2-(4-(4-tert-butylphenyl)piperazin-1-yl)methyl-4-((N,N-dimethylamino)methyl)amino-benzonitrile], the inhibition at 10 µM is reported as 90%. Work on `Cc1cccc(NCc2nc(N(C)CCN(C)C)ccc2C#N)c1` [Compound 40, 6-((2-(dimethylamino)ethyl)(methyl)amino)-2-((3-methylphenyl)amino)methyl-3-cyanopyridine] yielded an inhibition at 10 µM of 84%. Work on `CC(C)c1ccc(NCc2cc(N3CCN(C)CC3)ccc2C#N)cc1` [Compound 21, 4-(4-methylpiperazin-1-yl)-2-(p-isopropylphenylamino)methylbenzonitrile] yielded an inhibition at 10 µM of 90%. In the case of `Cc1ccc(N2CCN(Cc3cc(N4CCN(C)CC4)ccc3C#N)CC2)cc1C` [VI-11, 4-(4-methylpiperazin-1-yl)-2-(4-(3,4-dimethylphenyl)piperazin-1-yl)methylbenzonitrile], the inhibition at 10 µM is reported as 80%. Compound `CN1CCN(c2ccc(C#N)c(CNc3ccc(C4CCCC4)cc3)n2)CC1` [Compound 35, 6-(4-methylpiperazin-1-yl)-2-((4-cyclopentylphenylamino)methyl)-3-cyanopyridine] has an inhibition at 10 µM of 80%. With `CN1CCN(c2ccc(C#N)c(CN3CCN(c4ccc(O)cc4)CC3)c2)CC1` [VI-19, 4-(4-methylpiperazin-1-yl)-2-(4-(4-hydroxylphenyl)piperazin-1-yl)methylbenzonitrile] the inhibition at 10 µM was 67%. With `Cc1ccc(NCc2cc(N3CCN(C)CC3)ccc2C#N)cc1` [Compound 3, 4-(4-methylpiperazin-1-yl)-2-(p-methylphenylamino)methylbenzonitrile] the inhibition at 10 µM was 92%. `COc1ccc(NCc2cc(NCN3CCCCC3)ccc2C#N)cc1` [Compound 31, 2-((4-methoxyphenyl)amino)methyl-4-(piperidin-1-ylmethyl)aminobenzonitrile] gave an inhibition at 10 µM of 61%. `Cc1ccc(N2CCN(Cc3cc(N(C)CN4CCCC4)ccc3C#N)CC2)cc1` [VI-37, 4-((methyl)((pyrrolidin-1-yl)-methyl)amino)-2-(4-p-methylphenylpiperazin-1-yl)methylbenzonitrile] gave an inhibition at 10 µM of 87%. In the case of `N#Cc1ccc(N2CCNCC2)cc1CNc1ccc(Cl)cc1` [Compound 9, 4-(piperazin-1-yl)-2-(p-chlorophenylamino)methylbenzonitrile], the inhibition at 10 µM is reported as 92%. Work on `COc1ccc(NCc2cc(N3CCNCC3)ccc2C#N)cc1` [Compound 2, 4-(piperazin-1-yl)-2-(p-methoxyphenylamino)methylbenzonitrile] yielded an inhibition at 10 µM of 89%. `CSc1ccc(N2CCN(Cc3cc(N4CCN(C)CC4)ccc3C#N)CC2)cc1` [VI-17, 4-(4-methylpiperazin-1-yl)-2-(4-(4-(methylthio)phenyl)piperazin-1-yl)methylbenzonitrile] was tested, and the inhibition at 10 µM was 70%. With `Cc1ccc(NCc2cc(N3CCNC(C)C3)ccc2C#N)cc1` (stereo not shown) [Compound 5, 4-(3-methylpiperazin-1-yl)-2-(p-methylphenylamino)methylbenzonitrile] the inhibition at 10 µM was 88%. For `Cc1cc(N2CCN(Cc3cc(N4CCNCC4)ccc3C#N)CC2)ccc1Cl` [VI-15, 4-(piperazin-1-yl)-2-(4-(3-methyl4-chlorophenyl)piperazin-1-yl)methylbenzonitrile], the inhibition at 10 µM was 95%. For `CN1CCN(c2ccc(C#N)c(CNc3ccc(C4CCCC4)cc3)c2)CC1` [Compound 24, 4-(4-methylpiperazin-1-yl)-2-(p-cyclopentylphenylamino)methylbenzonitrile], the inhibition at 10 µM was 94%. `CN1CCN(c2ccc(C#N)c(CNc3ccc(C(C)(C)C)cc3)c2)CC1` [Compound 12, 4-(4-methylpiperazin-1-yl)-2-(p-tert-butylphenylamino)methylbenzonitrile] showed an inhibition at 10 µM of 92%.

Same assay, conditions: compound at 10 μmol/L; Huh7.5 cells infected with HCV virus particles; cultured 96 hrs; HCV RNA in cells vs virus control group
In the case of `CN(C)CCCNc1ccc(C#N)c(CNc2ccccc2)c1` [Compound 27, 4-(N,N-dimethyl-1,3-propanediamin-1-yl)-2-(phenylamino)methylbenzonitrile], the “percent inhibition (%)” value is reported as 78%. `CN(C)CCN(C)c1ccc(C#N)c(CN2CCC(c3ccc(Cl)cc3)CC2)c1` [VI-39, 4-(N,N′,N′-trimethyl-1,2-ethylenediamin-1-yl)-2-(4-p-chlorophenylpiperidin-1-yl)methylbenzonitrile] was tested, and the “percent inhibition (%)” value was 88%. In the case of `CN(C)CCCNc1ccc(C#N)c(CN2CCN(c3ccccc3)CC2)c1` [VI-27, 4-(N′,N′-dimethyl-1,3-propanediamin-1-yl)-2-(4-phenylpiperazin-1-yl)methylbenzonitrile], the “percent inhibition (%)” value is reported as 60%. With `COc1ccc(N2CCN(Cc3cc(NC(C)CN4CCCC4)ccc3C#N)CC2)cc1` (stereo not shown) [VI-46, 4-(1-(pyrrolidin-1-yl)propyl-2-yl)amino-2-(4-p-methoxyphenylpiperazin-1-yl)methylbenzonitrile] the “percent inhibition (%)” value was 95%. With `CN1CCN(c2ccc(C#N)c(CN3CCN(c4ccc(Br)cc4)CC3)c2)CC1` [VI-18, 4-(4-methylpiperazin-1-yl)-2-(4-(4-bromophenyl)piperazin-1-yl)methylbenzonitrile] the “percent inhibition (%)” value was 86%. In the case of `CN(C)CCNc1ccc(C#N)c(CN2CCN(c3ccc(C(F)(F)F)cc3)CC2)c1` [VI-28, 4-(N′,N′-dimethyl-1,2-ethylenediamin-1-yl)-2-(4-p-trifluoromethylphenyl-piperazin-1-yl)methylbenzonitrile], the “percent inhibition (%)” value is reported as 79%. For `Cc1ccc(NCc2cc(NCCCN(C)C)ccc2C#N)cc1` [Compound 26, 4-(N,N-dimethyl-1,3-propanediamin-1-yl)-2-(p-methylphenylamino)methylbenzonitrile], the “percent inhibition (%)” value was 79%. In the case of `CN(C)CCCNc1ccc(C#N)c(CN2CCN(c3ccc(Cl)cc3)CC2)c1` [VI-29, 4-(N′,N′-dimethyl-1,3-propanediamin-1-yl)-2-(4-p-chlorophenylpiperazin-1-yl)methylbenzonitrile], the “percent inhibition (%)” value is reported as 80%. For `COc1ccc(N2CCN(Cc3cc(N(C)CCN(C)C)ccc3C#N)CC2)cc1OC` [VI-45, 4-(N,N′,N′-trimethyl-1,2-ethylenediamin-1-yl)-2-(3,4-dimethoxyphenylpiperazin-1-yl)methylbenzonitrile], the “percent inhibition (%)” value was 92%.
